Test results published in patent publication US20150368195A1, “INDOLINE COMPOUNDS FOR TREATMENT AND/OR PREVENTION OF INFLAMMATION DISEASES” (Taipei Medical University, priority 2014, published 2015).
Where two headings read alike, the source gives them in different places. One block for each molecule: values may come before it.

Experiments:
prostaglandin E2 (PGE2) [1] = experiment: LPS-induced PGE2 production in RAW 264.7 macrophages; format: cell-based, Mouse; conditions: for IC50: Mus musculus, RAW264.7, LPS-stimulated RAW 264.7 macrophages, mean ± SEM, three experiments
Description: (§1) Furthermore, the anti-inflammatory effects of MPT0G009 was evaluated. […] These supernatants were then assayed for PGE2, NO, and IL-6.

[2] = tested on: tumor necrosis factor-α (TNF-α); experiment: LPS-induced TNF-α production in RAW 264.7 macrophages; conditions: Mus musculus, RAW264.7, read-out: IC50 TNF-α
interleukin-6 (IL-6) = experiment: LPS-induced IL-6 production in RAW 264.7 macrophages; conditions: Mus musculus, RAW264.7, read-out: IC50 IL-6
nitric oxide (NO) = experiment: LPS-induced nitric oxide production in RAW 264.7 macrophages; format: cell-based, Mouse; conditions: for IC50: Mus musculus, RAW264.7, LPS-stimulated RAW 264.7 macrophages, mean ± SEM, three experiments
Description: Nitrite concentration was determined using a dilution of sodium nitrite as a standard.
as §1

[3] = tested on: adjuvant-induced arthritis; experiment: adjuvant-induced arthritis (AIA) model; conditions: day 21, ELISA; MPT0G009 25 mg/kg, SAHA 200 mg/kg, indomethacin 1 mg/kg
Description: (FIG. 8B) Hind paw volumes in the indicated group of rats were measured using a digital plethysmometer on the indicated day after AIA induction. […] (FIG. 8D) Serum levels of interleukin (IL)-1β (left panel) and IL-6 (right panel) on day 21 as measured by enzyme-linked immunosorbent assay (ELISA). […] (FIG. 8F) The bone mineral density (BMD, in mg/mm^3) and the bone mineral content (BMC, in mg) values for the bone tissue of the tarsus were analyzed using CT Analysis Software.

[4] = tested on: carrageenan-induced hind paw edema; experiment: carrageenan-induced hind paw edema; conditions: for carrageenan-induced hind paw edema: oral, 1 h before carrageenan, compound 9 25 mg/kg, SAHA 200 mg/kg, Indomethacin 5 mg/kg, measured 3 h after
Description: A 0.5% (w/v) suspension of carrageenan in normal saline was administered to male Wistar rats (7-weeks) by intradermal injection into the base of the right hind paw. […] A positive control group was included in which rats were pretreated with 5 mg/kg Indomethacin. […] The results are expressed as the mean±SEM, with n=5. *p<0.05 compared to the control group; #p<0.05 for the comparison of the indicated groups.
Animals were divided into four groups (n=5). 0.5% (w/v) suspension of carrageenan in normal saline was administered to male Wistar rats (7-weeks) by intradermal injection into the base of the right hind paw. […] A positive control group was included in which rats were pretreated with 5 mg/kg Indomethacin. Three hours after carrageenan administration, the thickness and volume of the right hind paw were measured by digital caliper and digital plethysmometer (Diagnostic & Research Instruments CO., Ltd, Taipei, Taiwan), respectively.

[5] = tested on: inducible nitric oxide synthase (iNOS); experiment: LPS-induced iNOS protein expression, Western blot, RAW264.7; format: cell-based, Mouse; conditions: RAW264.7, 0.1-10 μM, LPS 25 ng/mL 24 h
Description: (§2) Then the cells were harvested and whole cell extracts were prepared for Western blot analysis for iNOS and COX-2. The relative protein expressions are presented as mean±SEM for four replicates. *p<0.05 compared to the LPS-treated group.

cyclooxygenase-2 (COX-2) = experiment: LPS-induced COX-2 protein expression, Western blot, RAW264.7; format: cell-based, Mouse; conditions: RAW264.7, 0.1-10 μM, LPS 25 ng/mL 24 h
Description: as §2

HDAC3 = experiment: HDAC isoform protein levels, Western blot, RA-FLS; format: cell-based; conditions: 12 or 24 h; 1 μM MPT0G009 or 30 μM SAHA
Description: Then cells were harvested and cell lysates were prepared for Western blot analysis of the indicated proteins. (FIG. 5C) RA-FLS were incubated for 1 h with or without the proteasome inhibitor, MG132 (1 μM). […] Results shown are representative of three independent experiments.

[6] = rats, SAHA (reference 30), cited from earlier work
RAW264.7 macrophages = experiment: M-CSF/RANKL-induced osteoclast formation; format: cell-based, Mouse; conditions: 5 nM MPT0G009 or 50 nM SAHA; M-CSF/RANKL 50 ng/mL, 5 days
Description: Cells were then tartrate resistant acid phosphatase (TRAP) stained, and the numbers of TRAP-positive multinuclear cells were counted. […] Images are at ×100 magnification, and the arrows indicate differentiated osteoclasts. (FIG. 6C) RAW264.7 cells were treated as in (FIG. 6B), then incubated with a fluorescein isothiocyanate (FITC)-conjugated anti-CD51/61 antibody and analyzed by flow cytometry. (FIGS. 6D and 6E) RAW264.7 cells (1×10^5) were transfected with 1 μg of pGL4.32[luc2P/NF-κB-RE/Hygro] (FIG. 6D) or pGL4.30[luc2P/NFAT-RE/Hygro] (FIG. 6E) for 24 h and then incubated for 30 min with or without MPT0G009 (5 nM). Then RANKL (50 ng/mL) was added and incubation was continued for an additional 24 h, after which luciferase activity was determined. Results in (FIGS. 6A, 6D, and 6E) are the means±SEM's for three independent experiments. **p<0.01 compared with the indicated controls.
Bone destruction is one characteristic of RA pathogenesis, resulting in joint dysfunction. Differentiation of mouse macrophages osteoclast-like cells can be induced in the presence of M-CSF and RANKL, which has been used as a model to investigate osteoclast differentiation. […] Subsequently, multinucleate tartrate resistant acid phosphatase (TRAP)-positive cells were counted.

HIG-82 synoviocytes = experiment: SRB anti-proliferation assay; format: cell-based; conditions: 24 or 48 h incubation
Excerpt: (§3) (FIG. 1A) Structure of MPT0G009. […] Results in (FIGS. 1B-E) and (FIG. 1G) are means±SEM's for three independent experiments, *p<0.05 and **p<0.01 compared with no added inhibitor.

RA-FLS [7] = experiment: SRB anti-proliferation assay; format: cell-based; conditions: 24 or 48 h incubation
Excerpt: as §3

IL-6 = experiment: IL-1β-induced IL-6 production by RA-FLS; format: cell-based; conditions: MPT0G009 0.1, 1, 10 μM; SAHA 0.3, 3, 30 μM; IL-1β 10 ng/mL 24 h
Description: as §3, §1

prostaglandin E2 (PGE2) [8] = experiment: LPS-induced PGE2 production by RA-FLS; format: cell-based; conditions: MPT0G009 0.1, 1, 10 μM; SAHA 0.3, 3, 30 μM; LPS 25 ng/mL 24 h
Description: as §3, §1

RA-FLS [9] = experiment: cell cycle distribution by flow cytometry (propidium iodide); format: cell-based; conditions: 24 h
Excerpt: as §3

p21 = p21 expression by flow cytometry or western blot in RA-FLS; format: cell-based; conditions: 24 h, 1 μM MPT0G009 or 3 μM SAHA
Excerpt: as §3

[10] = MPT0G009 0.1, 1, 10 μM, SAHA 0.3, 3, 30 μM, LPS 25 ng/mL 24 h

Structure (SMILES): COc1cccc(S(=O)(=O)N2CCc3cc(C=CC(=O)NO)ccc32)c1 [Compound 8, 3-[1-(3-Methoxybenzenesulfonyl)-2,3-dihydro-1H-indol-5-yl]-N-hydroxyacrylamide]
melting point: 156 to 157 °C
IC50 (prostaglandin E2 (PGE2) [1]): 1360 ± 290 nM
IC50 [2]: 1090 ± 120 nM
IC50 (interleukin-6 (IL-6)): 20 nM
IC50 (nitric oxide (NO)): 7350 ± 830 nM

Structure (SMILES): COc1ccc2c(c1)c(CC(=O)O)c(C)n2C(=O)c1ccc(Cl)cc1 [Indomethacin, reference compound]
serum levels of IL-1β [3]: significant decreases
serum levels of IL-6 [3]: significant decreases
carrageenan-induced hind paw edema [4]: suppressed

Structure (SMILES): O=C(C=Cc1ccc2c(c1)CCN2S(=O)(=O)c1ccccc1)NO [Compound 7, 3-(1-Benzenesulfonyl-2,3-dihydro-1H-indol-5-yl)-N-hydroxyacrylamide]
IC50 (prostaglandin E2 (PGE2) [1]): 1680 ± 270 nM
IC50 [2]: 990 ± 70 nM
IC50 (interleukin-6 (IL-6)): 20 nM
IC50 (nitric oxide (NO)): 4640 ± 120 nM

Structure (SMILES): COc1ccc(S(=O)(=O)N2CCc3cc(C=CC(=O)NO)ccc32)cc1OC [Compound 10, 3-[1-(3,4-Dimethoxybenzenesulfonyl)-2,3-dihydro-1H-indol-5-yl]-N-hydroxyacrylamide]
melting point: 192 to 193 °C
IC50 (prostaglandin E2 (PGE2) [1]): 1900 ± 210 nM
IC50 [2]: 620 ± 120 nM
IC50 (interleukin-6 (IL-6)): 10 nM
IC50 (nitric oxide (NO)): 7310 ± 660 nM

Structure (SMILES): O=C(CCCCCCC(=O)Nc1ccccc1)NO [SAHA, Suberanilohydroxamic Acid, reference compound]
iNOS protein expression [5]: significantly inhibited
iNOS protein expression ([5]; listed as SAHA (1)): concentration-dependently inhibitory effects
serum levels of IL-1β [3]: significant decreases
serum levels of IL-6 [3]: significant decreases
PGE2 production by RAW264.7 cells (prostaglandin E2 (PGE2) [1]; [10]): inhibited
COX-2 protein expression (cyclooxygenase-2 (COX-2)): significantly inhibited
COX-2 protein expression (cyclooxygenase-2 (COX-2); listed as SAHA (1)): concentration-dependently inhibitory effects
levels of HDAC3 in RA-FLS (HDAC3): no effect
AUC(0-inf) ([6]; iv 2 mg/kg): 278 ng·h/mL
CL ([6]; iv 2 mg/kg): 134 mL/min/kg
T1/2 ([6]; iv 2 mg/kg): 38.4 min
Vd ([6]; iv 2 mg/kg): 3.92 L/kg
AUC(0-inf) ([6]; po 5 mg/kg): 49.40 ng·h/mL
Cmax ([6]; po 5 mg/kg): 83.90 ng/mL
F ([6]; po 5 mg/kg): 6.9%
T1/2 ([6]; po 5 mg/kg): 67.8 min
Tmax ([6]; po 5 mg/kg): 10.2 min
expression of osteoclast-specific marker CD51/61 (RAW264.7 macrophages): no effect
formation of M-CSF/RANKL-induced TRAP-positive cells (RAW264.7 macrophages): no effect
proliferation of HIG-82 synoviocytes (HIG-82 synoviocytes): concentration-dependent anti-proliferative effects
proliferation of RA-FLS (RA-FLS [7]): concentration-dependent anti-proliferative effects
IL-6 production by RA-FLS (IL-6): inhibited
PGE2 production by RA-FLS (prostaglandin E2 (PGE2) [8]): inhibited
subG1 peak (cellular apoptosis) (RA-FLS [9]; MPT0G009 1-1000 nM, SAHA 3-3000 nM): did not increase the subG1 peak
G0/G1 phase arrest (RA-FLS [9]; all concentrations of both agents): G0/G1 phase arrest was observed
NO production by RAW264.7 cells (nitric oxide (NO); [10]): inhibited
paw thickness reduced compared to control ([4]; SAHA 200 mg/kg oral, 3 h after carrageenan): 15.7%
carrageenan-induced hind paw edema [4]: significantly inhibited
carrageenan-induced hind paw edema ([4]; listed as SAHA (1)): suppress
expression of p21 (p21): significantly increased

Further lines, with some results ahead:

melting point: 97 to 99 °C
IC50 (prostaglandin E2 (PGE2) [1]): > 10000 nM
IC50 (interleukin-6 (IL-6)): > 10000 nM
IC50 (nitric oxide (NO)): > 10000 nM
Structure (SMILES): Nc1ccc(S(=O)(=O)N2CCc3cc(C=CC(=O)NO)ccc32)cc1 [Compound 14, 3-[1-(4-Aminobenzenesulfonyl)-2,3-dihydro-1H-indol-5-yl]-N-hydroxyacrylamide]
IC50 [2]: > 10000 nM

IC50 (prostaglandin E2 (PGE2) [1]): 5130 ± 480 nM
IC50 (interleukin-6 (IL-6)): 170 nM
IC50 (nitric oxide (NO)): > 10000 nM
Structure (SMILES): O=C(/C=C/c1ccc2c(ccn2S(=O)(=O)c2ccccc2)c1)NO [Compound 6]
IC50 [2]: 3730 ± 260 nM

melting point: 159 to 160 °C
IC50 (prostaglandin E2 (PGE2) [1]): 1040 ± 150 nM
IC50 (interleukin-6 (IL-6)): 20 nM
IC50 (nitric oxide (NO)): 5490 ± 480 nM
Structure (SMILES): O=C(C=Cc1ccc2c(c1)CCN2S(=O)(=O)c1ccc(Cl)cc1)NO [Compound 12, 3-[1-(4-Chlorobenzenesulfonyl)-2,3-dihydro-1H-indol-5-yl]-N-hydroxyacrylamide]
IC50 [2]: 1010 ± 110 nM

melting point: 129 to 131 °C
IC50 (prostaglandin E2 (PGE2) [1]): 1310 ± 160 nM
IC50 (interleukin-6 (IL-6)): 30 nM
IC50 (nitric oxide (NO)): 4410 ± 310 nM
Structure (SMILES): O=C(C=Cc1ccc2c(c1)CCN2S(=O)(=O)c1ccc(F)cc1)NO [Compound 11, 3-[1-(4-Fluorobenzenesulfonyl)-2,3-dihydro-1H-indol-5-yl]-N-hydroxyacrylamide]
IC50 [2]: 1040 ± 250 nM

melting point: 163 to 165 °C
IC50 (prostaglandin E2 (PGE2) [1]): 1760 ± 260 nM
IC50 (interleukin-6 (IL-6)): 20 nM
IC50 (nitric oxide (NO)): 3110 ± 370 nM
Structure (SMILES): O=C(C=Cc1ccc2c(c1)CCN2S(=O)(=O)c1ccc([N+](=O)[O-])cc1)NO [Compound 13, 3-[1-(4-Nitrobenzenesulfonyl)-2,3-dihydro-1H-indol-5-yl]-N-Hydroxyacrylamide]
IC50 [2]: 1370 ± 180 nM

melting point: 142 to 143 °C
IC50 (prostaglandin E2 (PGE2) [1]): 2700 ± 430 nM
IC50 (interleukin-6 (IL-6)): 90 nM
IC50 (nitric oxide (NO)): > 10000 nM
Structure (SMILES): CN(C)c1cccc2c(S(=O)(=O)N3CCc4cc(C=CC(=O)NO)ccc43)cccc12 [Compound 15, 3-[1-(5-Dimethylaminonaphthalene-1-sulfonyl)-2,3-dihydro-1H-indol-5-yl]-N-hydroxyacrylamide]
IC50 [2]: 2110 ± 280 nM
